Experimental data: patent US20230183293A1, “METHODS OF TREATING OR PREVENTING CORONAVIRUS INFECTION” (priority 2021, published 2023)
Like-named read-outs stand apart in the source and are kept apart here. Marks after values point to notes of the source that are not given here.

What was measured:
SARS-CoV-2 [1] = assay: CPE reduction assay in Vero E6 cells with pharmaceutical formulations (Example 8); assay type: cell-based; conditions: for inhibitory / antiviral effect in CPE reduction assay: FIGS. 7D-7E; for EC50: Severe acute respiratory syndrome coronavirus 2, Vero C1008, 72 h, Vero E6, 3 days, read-out: EC50, inhibition of virus-induced cell death
[2] = Binding to plastic labware (coated or uncoated 96-well plates), remaining concentration by LC-MS/MS (Example 12); assay type: physicochemical
Method: Plastic labware was coated with three different coating agents: 100 mg/ml bovine serum albumin in PBS (BSA; Sigma), 1% polyethylene glycol 3350 in MilliQ water (PEG-3350; Sigma) and 0.2% polysorbate 40 in MilliQ water (Tween40; Fluka). In addition, the plastic materials with VCS by treating them with a 500 mM VCS solution in DMSO (Sigma). Labware, including all tubes, tips and culture plastics, was filled with blocking solution and incubated for 2 h at room temperature with rocking to homogenously coat the surfaces. After rinsing twice with MilliQ water, the items were left to dry at room temperature until further use in experiments. Solutions of 0.2 and 2 μM of VCS were prepared in EMEM-2% FCS and 100 μl of each VCS solution was incubated in coated 96-well plates. After a 2 h incubation at 37° C. the remaining VCS concentration was measured by validated LC-MS/MS.

SARS-CoV-2 [3] = assay type: cell-based
SARS-CoV-2 [4] = assay: microbe, parasite or virus in culture; assay type: cell-based; conditions: for EC50: Severe acute respiratory syndrome coronavirus 2, Vero C1008, FIG. 1C, Vero E6 CPE reduction, read-out: EC50 inhibition of SARS-CoV-2
[5] = assay type: physicochemical
in vitro = conditions: African green monkey
SARS-CoV-2 [6] = assay: CPE reduction assay in Vero E6 cells with pharmaceutical formulations dissolved in DMSO (Example 6); assay type: cell-based; conditions: Severe acute respiratory syndrome coronavirus 2, Vero C1008, 72 h, read-out: EC50, inhibition of virus-induced cell death
Vero E6 cells [7] = conditions: for concentrations without toxicity to uninfected cells: FIG. 1B; for concentration after which compound-related cytotoxicity was observed: Vero E6, 3 days
norovirus = conditions: compared with CsA; cited from earlier work
SARS-CoV-2 [8] = assay: microbe, parasite or virus in culture; assay type: cell-based
SARS-CoV-2 [9] = assay: SARS-CoV-2 viral load reduction assay in Vero E6 cells, plaque assay and NSP4 staining (Example 2); assay type: cell-based
SARS-CoV-2 [10] = conditions: prednisone + voclosporin, expected
Calu-3 cells [11] = conditions: with cells, glass
[12] = Phase 2b study in de novo kidney transplant recipients (Example 3); assay type: in vivo, human
Method: De novo kidney transplant recipients were enrolled into a 6 month, Phase 2b, multi-center, randomized, open-label study. […] In addition, all subjects received induction immunosuppression with intravenous daclizumab or basiliximab (dosed per product labeling) and received concomitant treatment during the study with MMF and corticosteroids. […] Adverse reactions were recorded and renal graft rejection was assessed based on Banff classification. At 3-month and 6-month time points, adverse reactions were analyzed. Graft survival and patient survival were also recorded at the 6-month time point.

Calu-3 cells [13] = conditions: plastic, Calu-3, FIG. 6D
calcineurin = conditions: in vitro and in vivo; Kuglstatter et al.; cited from earlier work
Vero E6 cells [14] = assay: Cytotoxicity in mock-infected Vero E6 cells, pure powder stocks (Example 11); assay type: cell-based, African green monkey; conditions: solution from pure powder
Method: CPE reductions assays in Vero E6 cells were performed, generally as described above, except that pre-incubation of cells with the tested compounds lasted 30 minutes. Plates were incubated for three days at 37° C. and cell viability was determined using a colorimetric assay, measuring the absorption at 495 nm. The EC50 and CC50 of each compound was determined and analysis of the resultant data using non-linear regression. For each compound, at least two independent experiments (each in quadruplicate) were completed.
CPE reduction assays were performed as described above, using high purity powders of immunosuppressive drugs solubilized in DMSO. Test stock solutions were prepared from pure powders of each compound. In the case of Neoral (CsA microemulsion), CsA powder, the most commonly used CsA derivative in KTR treatment, was evaluated.

[15] = VCS concentration after incubation in glass without cells, LC-MS/MS; assay type: physicochemical; conditions: for Conc: 3.2 μM supplied solution, without cells, glass
SARS-CoV-2 [16] = conditions: HuH7.5, Calu-3 and Vero cells; Dittmar et al.; cited from earlier work
SARS-CoV-2 virions = conditions: 2 h at 37° C., below the limit of detection
[17] = plastic labware, 0.8 μM stock solution, 2 h
[18] = Vero E6, MOI 0.015, three days, pharmaceutical formulation in DMSO, estimated concentrations

CO[C@H]1C[C@@H]2CC[C@@H](C)[C@@](O)(O2)C(=O)C(=O)N2CCCC[C@H]2C(=O)O[C@H]([C@H](C)C[C@@H]2CC[C@@H](OCCO)[C@H](OC)C2)CC(=O)[C@H](C)/C=C(\C)[C@@H](O)[C@@H](OC)C(=O)[C@H](C)C[C@H](C)/C=C/C=C/C=C/1C [EVL, everolimus]
inhibitory / antiviral effect in CPE reduction assay (SARS-CoV-2 [1]): did not show an inhibitory effect

C=C/C=C/C[C@@H](C)[C@@H](O)[C@H]1C(=O)N[C@@H](CC)C(=O)N(C)CC(=O)N(C)[C@@H](CC(C)C)C(=O)N[C@@H](C(C)C)C(=O)N(C)[C@@H](CC(C)C)C(=O)N[C@@H](C)C(=O)N[C@H](C)C(=O)N(C)[C@@H](CC(C)C)C(=O)N(C)[C@@H](CC(C)C)C(=O)N(C)[C@@H](C(C)C)C(=O)N1C [voclosporin]
Conc ([2]; 100 mg/ml BSA solution coating, 2 μM VCS, 0 h): 550 ± 210 nM
Conc ([2]; 100 mg/ml BSA solution coating, 2 μM VCS, 2 h): 100 ± 40 nM
Conc ([2]; 0.2% Tween-40 solution coating, 2 μM VCS, 0 h): 560 ± 350 nM
Conc ([2]; 0.2% Tween-40 solution coating, 2 μM VCS, 2 h): 90 ± 40 nM
Conc ([2]; 1% PEG-3350 solution coating, 2 μM VCS, 0 h): 510 ± 160 nM
Conc ([2]; 1% PEG-3350 solution coating, 2 μM VCS, 2 h): 90 ± 20 nM
Conc ([2]; Uncoated plastic, 2 μM VCS, 0 h): 560 ± 250 nM
Conc ([2]; Uncoated plastic, 2 μM VCS, 2 h): 130 ± 70 nM
original stock concentration recovered ([2]; t=0): ~27%
times lower EC50 compared to the other compounds tested (SARS-CoV-2 [1]): 18-45 times
EC50 (SARS-CoV-2 [1]): 0.22 ± 0.01 µM
reduction in SARS-CoV-2 infectious progeny titers (SARS-CoV-2 [3]): more than 1.5 log
EC50 (SARS-CoV-2 [4]): ~0.4 µM
concentration preserving viability of infected cells at level of mock-infected/uninfected cells (SARS-CoV-2 [4]; Vero E6, 3 days): 0.8 µM
detected concentration in the medium of infected cells ([5]; after 24 h treatment with 25 μM VCS, standard plastic labware): 0.68 µM
VCS lost due to plastic binding ([5]; considering a […]% reduction due to cellular binding or uptake): 90%
bioavailable amount of what was added initially when using plastic ([5]; plastic labware): ~10%
CC50 (in vitro): ~4 µM
EC50 (SARS-CoV-2 [6]): 0.27 µM
concentrations without toxicity to uninfected cells (Vero E6 cells [7]; batch 4): up to 10 μM
concentrations without toxicity to uninfected cells (Vero E6 cells [7]; unit not given): under 2
inhibition of norovirus replication (norovirus): inhibit norovirus replication in a CypA-dependent manner and more effectively than CsA
protection of SARS-CoV-2 infected cells compared with the pharmaceutical formulation (SARS-CoV-2 [8]): did not confer the same level of protection
concentration above which viral titer was reduced to the limit of detection (SARS-CoV-2 [9]; Vero E6, FIG. 2A, unit not given): above 1.00
amount of SARS-CoV-2 infected cells, fluorescent staining of viral NSP4 (SARS-CoV-2 [9]; Vero E6, FIG. 2C): reduced the amount of SARS-CoV-2 infected cells in a dose-dependent manner
SARS-CoV-2 viral load and CPEs compared to the tacrolimus group (SARS-CoV-2 [10]; 6 capsules of 7.9 mg BID): more efficacious reduction in viral load, and less severe CPEs
graft rejections, diabetes and adverse effects compared to the tacrolimus group (SARS-CoV-2 [10]): comparable or lower incidences of graft rejections, diabetes and adverse effects
Conc (Calu-3 cells [11]; 0.2 μM supplied solution, 0 h): 0.33 µM
Conc (Calu-3 cells [11]; 0.2 μM supplied solution, 24 h, below detection limit): <0.07* μM
Conc (Calu-3 cells [11]; 0.4 μM supplied solution, 0 h): 0.45 µM
Conc (Calu-3 cells [11]; 0.4 μM supplied solution, 24 h): 0.10 µM
Conc (Calu-3 cells [11]; 0.8 μM supplied solution, 0 h): 0.99 µM
Conc (Calu-3 cells [11]; 0.8 μM supplied solution, 24 h): 0.15 µM
Conc (Calu-3 cells [11]; 1.6 μM supplied solution, 0 h): 1.77 µM
Conc (Calu-3 cells [11]; 1.6 μM supplied solution, 24 h): 0.35 µM
Conc (Calu-3 cells [11]; 3.2 μM supplied solution, 0 h): 2.91 µM
Conc (Calu-3 cells [11]; 3.2 μM supplied solution, 24 h): 0.82 µM
NODAT (new onset of diabetes after transplant) incidence ([12]; high dose, 6 month): 17.7%
NODAT (new onset of diabetes after transplant) incidence ([12]; high dose, 6 month, listed as Voclosporin): 17.7%
Central BPAR (biopsy proven acute rejection), patients (incidence) ([12]; high dose, N = 87, 6 month post-transplantation): 2 (2.3%)
blood trough level ([12]; high-dose 0.8 mg/kg BID, months 0-3): 60 to 85 ng/mL
blood trough level ([12]; high-dose 0.8 mg/kg BID, months 3-6): 31 to 40 ng/mL
NODAT (new onset of diabetes after transplant) incidence ([12]; low dose, 6 month): 1.6%
NODAT (new onset of diabetes after transplant) incidence ([12]; low dose, 6 month, listed as Voclosporin): 1.6%
Central BPAR (biopsy proven acute rejection), patients (incidence) ([12]; low dose, N = 84, 6 month post-transplantation): 9 (10.7%)
blood trough level ([12]; low-dose 0.4 mg/kg BID, months 0-3): 20 to 30 ng/mL
blood trough level ([12]; low-dose 0.4 mg/kg BID, months 3-6): 11 to 20 ng/mL
NODAT (new onset of diabetes after transplant) incidence ([12]; mid dose, 6 month): 5.7%
NODAT (new onset of diabetes after transplant) incidence ([12]; mid dose, 6 month, listed as Voclosporin): 5.7%
Central BPAR (biopsy proven acute rejection), patients (incidence) ([12]; mid dose, N = 77, 6 month post-transplantation): 7 (9.1%)
blood trough level ([12]; mid-dose 0.6 mg/kg BID, months 0-3): 35 to 50 ng/mL
cytotoxicity (Calu-3 cells [13]): did not
increase of binding affinity to calcineurin compared to CsA (calcineurin): up to five-fold
cytotoxicity in mock-infected cells compared with the pharmaceutical formulation (Vero E6 cells [14]): less cytotoxicity
Conc ([15]; 0 h): 2910 nM
Conc ([15]; 24 h): 2790 nM
loss of compound from solution ([15]; 24 h at 37° C. in glass without cells): No significant loss

C=CC[C@@H]1/C=C(\C)C[C@H](C)C[C@H](OC)[C@H]2O[C@@](O)(C(=O)C(=O)N3CCCC[C@H]3C(=O)O[C@H](/C(C)=C/[C@@H]3CC[C@@H](O)[C@H](OC)C3)[C@H](C)[C@@H](O)CC1=O)[C@H](C)C[C@@H]2OC [tacrolimus, reference compound]
Conc ([2]; plastic labware, 0.8 μM stock solution, 0 h): 850 nM
% rem [2, 17]: 76%
Conc [2, 17]: 650 nM
loss by binding to plastic ([2]; plastic labware, 2 h): 24%
EC50 (SARS-CoV-2 [1]): 10 ± 1 µM
reduction in SARS-CoV-2 infectious progeny titers (SARS-CoV-2 [3]; 3.2 μM, glass labware, Calu-3, 24 h p.i., FIG. 6A): ~0.5 log
EC50 (SARS-CoV-2 [4]): ~25 µM
protection of infected cells from virus-induced cytopathic effects (SARS-CoV-2 [4]; dosages up to 25 μM): did not protect
EC50 (SARS-CoV-2 [6]; [18]): 12 µM
concentration after which compound-related cytotoxicity was observed (Vero E6 cells [7]): above 25 μM
concentration after which compound-related cytotoxicity was observed (Vero E6 cells [7]; listed as Tacrolimus): > 25000 nM
EC50 (SARS-CoV-2 [8]; Severe acute respiratory syndrome coronavirus 2, Vero C1008, solutions prepared from pure powder, read-out: EC50, inhibition of SARS-CoV-2 in Vero E6 cells): ~15 µM
blood trough level ([12]; standard dose 0.05 mg/kg BID, months 0-3): 7 to 20 ng/mL
blood trough level ([12]; standard dose 0.05 mg/kg BID, months 0-6 as printed): 5 to 15 ng/mL
Nankivell eGFR ([12]; standard dose group): 69 mL/min
Graft survival ([12]; standard dose, 6 month): 97.7%
NODAT (new onset of diabetes after transplant) incidence ([12]; standard dose, 6 month): 16.4%
Patient survival ([12]; standard dose, 6 month): 97.7%
NODAT (new onset of diabetes after transplant) incidence ([12]; standard dose, 6 month, listed as Tacrolimus): 16.4%
Central BPAR (biopsy proven acute rejection), patients (incidence) ([12]; standard dose, N = 86, 6 month post-transplantation): 5 (5.8%)
cytotoxicity (Calu-3 cells [13]): did not display much cytotoxicity
activity on SARS-CoV-2 replication in a previous report (SARS-CoV-2 [16]): no activity

COc1c(C)c2c(c(O)c1C/C=C(\C)CCC(=O)O)C(=O)OC2 [mycophenolate, mycophenolic acid]
EC50 (SARS-CoV-2 [6]; [18]): 3.1 µM

CCO [50% ethanol, ethanol]
amount of infectious SARS-CoV-2 remaining (SARS-CoV-2 virions): < 100 PFU/ml

COc1c(C)c2c(c(O)c1C/C=C(\C)CCC(=O)OCCN1CCOCC1)C(=O)OC2 [MMF, mycophenolate mofetil]
inhibitory / antiviral effect in CPE reduction assay (SARS-CoV-2 [1]): apparent antiviral effect
